Assay results reported in ChEMBL document CHEMBL1146792, “Antimitotic activity of glaupalol-related coumarins from Glaucidium palmatum” (Bioorg Med Chem Lett, 2004).
Converted amounts (≈) assume the structure as drawn.

Tests used:
KB = assay: Compound was tested for cytotoxicity against human KB cells; assay type: functional, cell-based
Tubulin alpha chain = Tubulin alpha chain (Sus scrofa, UniProt P02550); assay: Inhibition of the polymerization of tubulin; assay type: functional
Sequence of Tubulin alpha chain (P02550 whole entry, looked up): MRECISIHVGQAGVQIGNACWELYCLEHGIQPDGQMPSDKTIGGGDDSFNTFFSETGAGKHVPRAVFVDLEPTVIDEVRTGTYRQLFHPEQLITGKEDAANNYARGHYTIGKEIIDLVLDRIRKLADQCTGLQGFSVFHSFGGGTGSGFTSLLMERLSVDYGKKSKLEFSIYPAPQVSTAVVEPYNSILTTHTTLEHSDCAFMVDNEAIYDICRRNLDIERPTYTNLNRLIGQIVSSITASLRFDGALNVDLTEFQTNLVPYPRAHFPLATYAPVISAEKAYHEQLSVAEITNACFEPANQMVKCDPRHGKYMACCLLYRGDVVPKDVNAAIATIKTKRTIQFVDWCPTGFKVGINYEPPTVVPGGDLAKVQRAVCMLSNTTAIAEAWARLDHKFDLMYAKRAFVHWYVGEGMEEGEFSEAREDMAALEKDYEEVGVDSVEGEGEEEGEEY

SMILES	IC50 (KB)	IC50 (Tubulin alpha chain)
COc1cc(=O)oc2ccc(O)c(C)c12	4.8 µg/mL (≈ 23.3 µM)	–
Cc1c(O)ccc2oc(=O)c3c(c12)OC(C)C3(C)C (centres undefined)	1.5 µg/mL (≈ 5.76 µM)	–
Cc1c(O)ccc2oc(=O)c3c(c12)O[C@H](C)[C@@]3(C)CO	4.3 µg/mL (≈ 15.6 µM)	–
CC(=O)OC[C@@]1(C)c2c(c3c(C)c(O)ccc3oc2=O)O[C@@H]1C	17 µg/mL (≈ 53.4 µM)	30 µM
CC(=O)OC[C@@]1(C)c2c(c3c(C)c(O)ccc3oc2=O)O[C@H]1C	23 µg/mL (≈ 72.3 µM)	10 µM
Cc1c(O)ccc2oc(=O)c3c(c12)O[C@@H](C)[C@@]3(C)CO	5.7 µg/mL (≈ 20.6 µM)	–
Cc1c(OC2O[C@H](CO)[C@@H](O)[C@H](O)[C@H]2O)ccc2oc(=O)c3c(c12)OC(C)C3(C)C (single isomer, unassigned)	6.7 µg/mL (≈ 15.9 µM)	–
